# Measurements from PubChem BioAssay AID2060505 (Molecular Pharmacology Branch, DTP, NCI, 2025).
# Tested on: 633275-114-R-J1-PDC complex spheroids, viability
# Assay: Anticancer human tumor 633275-114-R-J1-PDC patient-derived endometrial adenocarcinoma cell line growth inhibition [GQUAD]
# Settings: for IC50: curve of first compound; for viability, T/C: stronger effect = lower value
# Method in brief: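 Viability of tumor cells grown as complex spheroids with endothelial and stromal cells, exposed to drug combinations. Top concentration at or near clinical Cmax (else 10 microM), diluted in half-log increments.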
# [1] = second compound 0.0316 µM, first compound 0.0316 µM
# [2] = second compound 0.0316 µM, first compound 0.1 µM
# [3] = second compound 0.0316 µM, first compound 0.316 µM
# [4] = second compound 0.0316 µM, first compound 1 µM
# [5] = second compound 0.0316 µM, first compound 3.16 µM
# [6] = second compound 0.0316 µM, first compound 10 µM
# [7] = second compound 0.1 µM, first compound 0.0316 µM
# [8] = second compound 0.1 µM, first compound 0.1 µM
# [9] = second compound 0.1 µM, first compound 0.316 µM
# [10] = second compound 0.1 µM, first compound 1 µM
# [11] = second compound 0.1 µM, first compound 3.16 µM
# [12] = second compound 0.1 µM, first compound 10 µM
# [13] = second compound 0.316 µM, first compound 0.0316 µM
# [14] = second compound 0.316 µM, first compound 0.1 µM
# [15] = second compound 0.316 µM, first compound 0.316 µM
# [16] = second compound 0.316 µM, first compound 1 µM
# [17] = second compound 0.316 µM, first compound 3.16 µM
# [18] = second compound 0.316 µM, first compound 10 µM
# [19] = second compound 1 µM, first compound 0.0316 µM
# [20] = second compound 1 µM, first compound 0.1 µM
# [21] = second compound 1 µM, first compound 0.316 µM
# [22] = second compound 1 µM, first compound 1 µM
# [23] = second compound 1 µM, first compound 3.16 µM
# [24] = second compound 1 µM, first compound 10 µM
# [25] = second compound 3.16 µM, first compound 0.0316 µM
# [26] = second compound 3.16 µM, first compound 0.1 µM
# [27] = second compound 3.16 µM, first compound 0.316 µM
# [28] = second compound 3.16 µM, first compound 1 µM
# [29] = second compound 3.16 µM, first compound 3.16 µM
# [30] = second compound 3.16 µM, first compound 10 µM
# [31] = second compound 10 µM, first compound 0.0316 µM
# [32] = second compound 10 µM, first compound 0.1 µM
# [33] = second compound 10 µM, first compound 0.316 µM
# [34] = second compound 10 µM, first compound 1 µM
# [35] = second compound 10 µM, first compound 3.16 µM
# [36] = second compound 10 µM, first compound 10 µM
# 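Also: spheroids exposed to the agents for seven days.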
# 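For viability, T/C in this document: percent of DMSO vehicle control viability which is 100%.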
smiles,measurement,setting,value
C=CC(=O)N1CCN(c2nc(=O)n(-c3c(C)ccnc3C(C)C)c3nc(-c4c(O)cccc4F)c(F)cc23)C(C)C1 (stereo unspecified) + Cc1cnc(CNC(=O)c2c(=O)c3ccc(N4CCCN(C)CC4)nc3n3c2sc2ccccc23)cn1,IC50,second compound 0.0316 µM,> 10000 nM
same,IC50,second compound 0.1 µM,> 10000 nM
same,IC50,second compound 0.316 µM,< 31.6 nM
same,IC50,second compound 1 µM,< 31.6 nM
same,IC50,second compound 3.16 µM,< 31.6 nM
same,IC50,second compound 10 µM,< 31.6 nM
same,"viability, T/C",[1],67.1%
same,"viability, T/C",[2],62.3%
same,"viability, T/C",[3],78.3%
same,"viability, T/C",[4],69%
same,"viability, T/C",[5],65.4%
same,"viability, T/C",[6],68.1%
same,"viability, T/C",[7],57.4%
same,"viability, T/C",[8],57.8%
same,"viability, T/C",[9],55.4%
same,"viability, T/C",[10],57%
same,"viability, T/C",[11],59.8%
same,"viability, T/C",[12],51.6%
same,"viability, T/C",[13],46.8%
same,"viability, T/C",[14],44.9%
same,"viability, T/C",[15],47.6%
same,"viability, T/C",[16],53.5%
same,"viability, T/C",[17],54.1%
same,"viability, T/C",[18],46.8%
same,"viability, T/C",[19],41.6%
same,"viability, T/C",[20],48.2%
same,"viability, T/C",[21],45.7%
same,"viability, T/C",[22],42.9%
same,"viability, T/C",[23],47.7%
same,"viability, T/C",[24],41%
same,"viability, T/C",[25],37.3%
same,"viability, T/C",[26],36.5%
same,"viability, T/C",[27],39.4%
same,"viability, T/C",[28],42.6%
same,"viability, T/C",[29],42.4%
same,"viability, T/C",[30],37.6%
same,"viability, T/C",[31],32.3%
same,"viability, T/C",[32],34.1%
same,"viability, T/C",[33],34%
same,"viability, T/C",[34],35.9%
same,"viability, T/C",[35],39.7%
same,"viability, T/C",[36],30.2%
CC1COCCN1c1cc(-c2ccnn2C)c2ccnc(-c3ccn[nH]3)c2n1 (stereo unspecified) + Cc1cnc(CNC(=O)c2c(=O)c3ccc(N4CCCN(C)CC4)nc3n3c2sc2ccccc23)cn1,IC50,second compound 0.0316 µM,< 31.6 nM
same,IC50,second compound 0.1 µM,< 31.6 nM
same,IC50,second compound 0.316 µM,< 31.6 nM
same,IC50,second compound 1 µM,< 31.6 nM
same,IC50,second compound 3.16 µM,< 31.6 nM
same,IC50,second compound 10 µM,< 31.6 nM
same,"viability, T/C",[1],43.9%
same,"viability, T/C",[2],32.6%
same,"viability, T/C",[3],29.8%
same,"viability, T/C",[4],25.8%
same,"viability, T/C",[5],18.7%
same,"viability, T/C",[6],14.7%
same,"viability, T/C",[7],42.2%
same,"viability, T/C",[8],37.7%
same,"viability, T/C",[9],30.2%
same,"viability, T/C",[10],22.6%
same,"viability, T/C",[11],17.3%
same,"viability, T/C",[12],14.9%
same,"viability, T/C",[13],38.8%
same,"viability, T/C",[14],38.2%
same,"viability, T/C",[15],30.6%
same,"viability, T/C",[16],24%
same,"viability, T/C",[17],17.5%
same,"viability, T/C",[18],10.9%
same,"viability, T/C",[19],36.9%
same,"viability, T/C",[20],36.6%
same,"viability, T/C",[21],29.1%
same,"viability, T/C",[22],22.2%
same,"viability, T/C",[23],15.4%
same,"viability, T/C",[24],11.1%
same,"viability, T/C",[25],33.6%
same,"viability, T/C",[26],29.1%
same,"viability, T/C",[27],25%
same,"viability, T/C",[28],20.8%
same,"viability, T/C",[29],13.3%
same,"viability, T/C",[30],9.84%
same,"viability, T/C",[31],28.5%
same,"viability, T/C",[32],24.7%
same,"viability, T/C",[33],23.4%
same,"viability, T/C",[34],18.4%
same,"viability, T/C",[35],14.4%
same,"viability, T/C",[36],8.93%
CC1COCCN1c1cc(C2(O)CC3CCC(C2)O3)c2cnn(-c3ccn[nH]3)c2n1 (stereo unspecified) + Cc1cnc(CNC(=O)c2c(=O)c3ccc(N4CCCN(C)CC4)nc3n3c2sc2ccccc23)cn1,IC50,second compound 0.0316 µM,< 31.6 nM
same,IC50,second compound 0.1 µM,< 31.6 nM
same,IC50,second compound 0.316 µM,< 31.6 nM
same,IC50,second compound 1 µM,< 31.6 nM
same,IC50,second compound 3.16 µM,< 31.6 nM
same,IC50,second compound 10 µM,< 31.6 nM
same,"viability, T/C",[1],37.6%
same,"viability, T/C",[2],31.2%
same,"viability, T/C",[3],25%
same,"viability, T/C",[4],19.6%
same,"viability, T/C",[5],12.4%
same,"viability, T/C",[6],8.78%
same,"viability, T/C",[7],38.3%
same,"viability, T/C",[8],28.8%
same,"viability, T/C",[9],24.3%
same,"viability, T/C",[10],17.5%
same,"viability, T/C",[11],11.4%
same,"viability, T/C",[12],7.39%
same,"viability, T/C",[13],36.4%
same,"viability, T/C",[14],33%
same,"viability, T/C",[15],25%
same,"viability, T/C",[16],15.8%
same,"viability, T/C",[17],11.2%
same,"viability, T/C",[18],6.81%
same,"viability, T/C",[19],29.6%
same,"viability, T/C",[20],27.9%
same,"viability, T/C",[21],24.2%
same,"viability, T/C",[22],14.8%
same,"viability, T/C",[23],10.2%
same,"viability, T/C",[24],4.76%
same,"viability, T/C",[25],31.6%
same,"viability, T/C",[26],25.4%
same,"viability, T/C",[27],19.5%
same,"viability, T/C",[28],12.9%
same,"viability, T/C",[29],9.19%
same,"viability, T/C",[30],5.97%
same,"viability, T/C",[31],29.4%
same,"viability, T/C",[32],24.4%
same,"viability, T/C",[33],17%
same,"viability, T/C",[34],12.7%
same,"viability, T/C",[35],10.2%
same,"viability, T/C",[36],0.18%
